# Reference: US9301951B2 (Ardelyx, Inc., priority 2010, dated 2016)
# Tests used:
# human NaP2b (SLC34A2) = target: T1, human NaP2b (SLC34A2) (Homo sapiens, UniProt O95436); assay: Inhibition of NaP2b-mediated Pi (33P) uptake in transfected HEK293 cells, human NaP2b; type: cell-based; conditions: HEK293 cells transfected with human NaP2b, 100 uM phosphate, 0.1 nM to 30 uM, read-out: pIC50 range for human NaP2b (converted)
# T1 construct: host or cells: HEK293
# T1 sequence (O95436 1-690): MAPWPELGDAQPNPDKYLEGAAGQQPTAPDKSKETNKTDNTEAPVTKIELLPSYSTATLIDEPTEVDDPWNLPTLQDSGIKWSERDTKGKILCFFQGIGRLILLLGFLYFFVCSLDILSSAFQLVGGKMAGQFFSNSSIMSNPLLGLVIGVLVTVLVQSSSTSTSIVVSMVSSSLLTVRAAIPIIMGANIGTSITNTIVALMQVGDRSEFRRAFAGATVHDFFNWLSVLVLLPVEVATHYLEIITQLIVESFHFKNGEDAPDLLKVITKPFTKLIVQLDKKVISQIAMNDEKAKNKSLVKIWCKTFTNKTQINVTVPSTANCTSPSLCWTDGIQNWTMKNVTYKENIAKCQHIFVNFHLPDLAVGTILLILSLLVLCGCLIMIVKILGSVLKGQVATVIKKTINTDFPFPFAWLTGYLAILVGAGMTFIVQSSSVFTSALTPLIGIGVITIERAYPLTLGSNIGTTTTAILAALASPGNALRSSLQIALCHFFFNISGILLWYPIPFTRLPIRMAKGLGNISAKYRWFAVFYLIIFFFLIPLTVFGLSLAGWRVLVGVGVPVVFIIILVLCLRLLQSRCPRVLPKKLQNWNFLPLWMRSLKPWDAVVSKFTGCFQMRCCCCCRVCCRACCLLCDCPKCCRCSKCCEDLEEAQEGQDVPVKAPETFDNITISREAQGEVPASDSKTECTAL
# Description: (§1) HEK293 cells were obtained from the American Type Culture collection and propagated per their instructions. Expression clones for rat and human NaP2b (SLC34A2) were obtained from Open Biosystems (Catalog numbers MRN1768-9510282, and MHS1010-99823026, respectively). The sequence of the human protein was mutated to insert a threonine after residue 37, and to introduce a N39D mutation.
# The rate of phosphate (Pi) uptake into HEK293 cells was measured using a modification of the method described by Mohrmann et al. (Mohrmann, I., Mohrmann, M., Biber, J., and Murer, H. (1986) Am. J. Phys. 250(3 Pt 1):G323-30.) Transfected HEK293 cells were treated with a pharmacological agent to minimize endogenous PiT-mediated phosphate transport activity, such that the only remaining sodium-dependent phosphate transport activity is that which was bestowed by introduction of the NaP2b genes.
# (§2) Cells were seeded into 96-well plates at 25,000 cells/well and cultured overnight. Lipofectamine 2000 (Invitrogen) was used to introduce the NaP2b cDNA, and the cells were allowed to approach confluence during a second overnight incubation. […] Cells were then overlayed with either choline uptake buffer or sodium uptake buffer (14 mM Tris, 137 mM sodium chloride, 5.4 mM KCl, 2.8 mM CaCl2, 1.2 mM MgSO4, 100 uM KH2PO4, PiT-silencing agent, 1 mg/mL Bovine Serum Albumin, pH 7.4) containing 6-9 uCi/mL ^33P orthophosphoric acid (Perkin Elmer) and test compound. Each compound was tested at twelve concentrations ranging from 0.1 nM to 30 uM. Assays were run in duplicate.
# After incubation for 3-30 minutes at room temperature, assay mixtures were removed, and the cells were washed twice with ice cold stop solution (137 mM sodium chloride, 14 mM Tris, pH 7.4). Cells were lysed by addition of 20 μL 0.1% Tween 80 followed by 100 μL scintillation fluid, and counted using a TopCount (Perkin Elmer).
# (§3) pIC50 (the negative log of the […]) values of the test compounds were calculated using GraphPad Prism.
# rat NaP2b (SLC34A2) = target: T2, rat NaP2b (SLC34A2) (Rattus norvegicus, UniProt Q9JJ09); assay: Inhibition of NaP2b-mediated Pi (33P) uptake in transfected HEK293 cells, rat NaP2b; type: cell-based; conditions: HEK293 cells transfected with rat NaP2b, 100 uM phosphate, 0.1 nM to 30 uM, read-out: pIC50 range for rat Nap2b (converted)
# T2 construct: host or cells: HEK293
# T2 sequence (Q9JJ09 1-695): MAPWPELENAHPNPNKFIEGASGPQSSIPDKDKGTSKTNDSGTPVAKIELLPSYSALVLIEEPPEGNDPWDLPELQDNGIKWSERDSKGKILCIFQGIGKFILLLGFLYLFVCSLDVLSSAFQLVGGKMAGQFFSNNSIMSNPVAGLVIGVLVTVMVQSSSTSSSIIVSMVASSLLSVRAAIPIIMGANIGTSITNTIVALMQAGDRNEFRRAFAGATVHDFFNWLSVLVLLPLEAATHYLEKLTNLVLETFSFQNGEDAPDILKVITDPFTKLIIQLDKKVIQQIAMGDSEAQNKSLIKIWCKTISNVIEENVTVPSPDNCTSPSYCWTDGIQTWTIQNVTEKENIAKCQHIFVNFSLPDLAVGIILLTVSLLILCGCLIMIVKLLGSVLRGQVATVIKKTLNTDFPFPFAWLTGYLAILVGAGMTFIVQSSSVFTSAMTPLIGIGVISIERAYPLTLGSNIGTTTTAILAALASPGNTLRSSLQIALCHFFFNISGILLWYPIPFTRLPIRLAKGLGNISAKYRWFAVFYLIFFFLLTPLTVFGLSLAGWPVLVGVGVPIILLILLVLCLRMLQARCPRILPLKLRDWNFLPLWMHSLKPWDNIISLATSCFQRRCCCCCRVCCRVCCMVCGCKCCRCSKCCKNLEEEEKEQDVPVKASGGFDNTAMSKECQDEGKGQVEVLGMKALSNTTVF
# Description: as §1, §2
# Cells were lysed by addition of 20 μL 0.1% Tween 80 followed by 100 μL scintillation fluid, and counted using a TopCount (Perkin Elmer).
# as §3
smiles,measurement,setting,value
"CCN(CC)c1ccc(NC(=O)c2cccc(CS(=O)(=O)CCOCCOCCOCCOCCC(=O)O)c2)c(-c2cc(C(=O)NCc3cccc(C(F)(F)F)c3)ccn2)c1 [Example 167, 1-(((3-((4-(diethylamino)-2-[4-(((3-(trifluoromethyl)phenyl]methyl)carbamoyl)pyridin-2-yl)phenyl)carbamoyl)phenyl)methane)sulfonyl)-3,6,9,12-tetraoxapentadecan-15-oic acid]",IC50,human NaP2b (SLC34A2),10000 to 31600 nM
same,IC50,rat NaP2b (SLC34A2),10000 to 31600 nM
"CCN(CC)c1ccc(NC(=O)c2cccc(COCCOCCOCCOCCOC(=O)NC(CO)(CO)CO)c2)c(-c2cc(C(=O)NCc3cccc(C(F)(F)F)c3)ccn2)c1 [Example 177, 1-(3-(4-(diethylamino)-2-(4-(3-(trifluoromethyl)benzylcarbamoyl)pyridin-2-yl)phenylcarbamoyl)phenyl)-2,5,8,11-tetraoxamidecan-13-yl 1,3-dihydroxy-2-(hydroxymethyl)propan-2-ylcarbamate]",IC50,human NaP2b (SLC34A2),1000 to 7940 nM
same,IC50,rat NaP2b (SLC34A2),1000 to 7940 nM
"CCN(CC)c1ccc(NC(=O)c2cccc(CCCOCCOCCOCCOCCC(=O)N(C)CCOCCOCCOCCOCCOCCOCCOC)c2)c(-c2cc(C(=O)NCc3cccc(C(F)(F)F)c3)ccn2)c1 [Example 259, 2-(5-(diethylamino)-2-(3-(23-methyl-24-oxo-2,5,8,11,14,17,20,27,30,33,36-undecaoxa-23-azanonatriacontan-39-yl)benzamido)phenyl)-N-(3-(trifluoromethyl)benzyl)isonicotinamide]",IC50,human NaP2b (SLC34A2),1000 to 7940 nM
"CCN(CC)c1ccc(NC(=O)c2cccc(Cn3ccc4c(C(=O)NCCOCCOCCOCCC(=O)O)cccc43)c2)c(-c2cc(C(=O)N[C@H]3CCCc4ccccc43)ccn2)c1 [Example 182, (S)-1-(1-(3-(4-(diethylamino)-2-(4-(1,2,3,4-tetrahydronaphthalen-1-ylcarbamoyl)pyridin-2-yl)phenylcarbamoyl)benzyl)-1H-indol-4-yl)-1-oxo-5,8,11-trioxa-2-azatetradecan-14-oic acid]",IC50,human NaP2b (SLC34A2),< 1000 nM
same,IC50,rat NaP2b (SLC34A2),< 1000 nM
"CCN(CC)c1ccc(NC(=O)c2cccc(CCCOCCOCCOCCOCCNC(=O)c3cccc(CCCOCCOCCOCCOCCOCCOCCOCCOCCOC)c3)c2)c(-c2cc(C(=O)NCc3cccc(C(F)(F)F)c3)ccn2)c1 [Example 271, 2-(2-(3-(1-(3-(2,5,8,11,14,17,20,23,26-nonaoxanonacosan-29-yl)phenyl)-1-oxo-5,8,11,14-tetraoxa-2-azaheptadecan-17-yl)benzamido)-5-(diethylamino)phenyl)-N-(3-(trifluoromethyl)benzyl)isonicotinamide]",IC50,human NaP2b (SLC34A2),< 1000 nM
"O=C(O)CCOCCOCCOCCOCCCc1cccc(C(=O)Nc2ccc(OC3CCC3)cc2-c2cc(C(=O)N[C@H]3CCCc4ccccc43)ccn2)c1 [Example 285, (S)-16-(3-((4-cyclobutoxy-2-(4-((1,2,3,4-tetrahydronaphthalen-1-yl)carbamoyl)pyridin-2-yl)phenyl)carbamoyl)phenyl)-4,7,10,13-tetraoxahexadecan-1-oic acid]",IC50,human NaP2b (SLC34A2),< 1000 nM
"CCN(CC)c1ccc(NC(=O)c2cccc(CCCOCCOCCOCCOCCNS(=O)(=O)c3ccc(CCC(=O)NCCOCCOCCOCCOCCOCCOCCOC)cc3)c2)c(-c2cc(C(=O)NCc3cccc(C(F)(F)F)c3)ccn2)c1 [Example 296, 2-(5-(diethylamino)-2-(3-(1-(4-(24-oxo-2,5,8,11,14,17,20-heptaoxa-23-azahexacosan-26-yl)phenylsulfonamido)-3,6,9,12-tetraoxapentadecan-15-yl)benzamido)phenyl)-N-(3-(trifluoromethyl)benzyl)isonicotinamide]",IC50,human NaP2b (SLC34A2),1000 to 7940 nM
"CCN(CC)c1ccc(NC(=O)c2cccc(CCCOCCOCCOCCOCCC(=O)N3CCN(C(=O)c4cccc(CCCOCCOCCOCCOCCC(=O)O)c4)CC3)c2)c(-c2cc(C(=O)NCc3cccc(C(F)(F)F)c3)ccn2)c1 [Example 293, 16-(3-(4-(16-(3-(4-(diethylamino)-2-(4-(3-(trifluoromethyl)benzylcarbamoyl)pyridin-2-yl)phenylcarbamoyl)phenyl)-4,7,10,13-tetraoxahexadecane)piperazine-1-carbonyl)phenyl)-4,7,10,13-tetraoxahexadecan-1-oic acid]",IC50,human NaP2b (SLC34A2),1000 to 7940 nM
same,IC50,rat NaP2b (SLC34A2),1000 to 7940 nM
"CCN(CC)c1ccc(NC(=O)c2cccc(CCCOCCOCCOCCOCCNS(=O)(=O)c3ccc(C(=O)N(C)CCOCCOCCOCCOCCOCCOCCOC)cc3)c2)c(-c2cc(C(=O)NCc3cccc(C(F)(F)F)c3)ccn2)c1 [Example 287, 2-(2-(3-(1-(4-(2,5,8,11,14,17,20-heptaoxadocosan-22-yl(methyl)carbamoyl)phenylsulfonamido)-3,6,9,12-tetraoxapentadecan-15-yl)benzamido)-5-(diethylamino)phenyl)-N-(3-(trifluoromethyl)benzyl)isonicotinamide]",IC50,human NaP2b (SLC34A2),1000 to 7940 nM
"CCN(CC)c1ccc(NC(=O)c2cccc(CCCOCCOCCOCCOCCC(=O)NCCOCCOCCOCCOCCOCCOCCOC)c2)c(-c2cc(C(=O)NCc3cccc(C(F)(F)F)c3)ccn2)c1 [Example 260, 2-(5-(diethylamino)-2-(3-(24-oxo-2,5,8,11,14,17,20,27,30,33,36-undecaoxa-23-azanonatriacontan-39-yl)benzamido)phenyl)-N-(3-(trifluoromethyl)benzyl)isonicotinamide]",IC50,human NaP2b (SLC34A2),< 1000 nM
"CN(CCN1CCC[C@H]1C(=O)N(C)CCOCCOCCOCCC(=O)OC(C)(C)C)C(=O)c1cccc(C(=O)Nc2ccc(N3CCCCC3)cc2-c2cc(C(=O)N[C@H]3CCCc4ccccc43)ccn2)c1 [Example 190, tert-Butyl 2-methyl-1-((S)-1-(2-(N-methyl-3-((4-(piperidin-1-yl)-2-(4-(((S)-1,2,3,4-tetrahydronaphthalen-1-yl)carbamoyl)pyridin-2-yl)phenyl)carbamoyl)benzamido)ethyl)pyrrolidin-2-yl)-1-oxo-5,8,11-trioxa-2-azatetradecan-14-oate]",IC50,human NaP2b (SLC34A2),1000 to 7940 nM
"CCN(CC)c1ccc(NC(=O)c2cccc(CCCOCCOCCOCCOCCNS(=O)(=O)c3ccc(C(=O)N4CCN(CCOCCOCCOCCOCCOCCOCCOC)C(=O)C4)cc3)c2)c(-c2cc(C(=O)NCc3cccc(C(F)(F)F)c3)ccn2)c1 [Example 288, 2-(2-(3-(1-(4-(4-(2,5,8,11,14,17,20-heptaoxadocosan-22-yl)-3-oxopiperazine-1-carbonyl)phenylsulfonamido)-3,6,9,12-tetraoxapentadecan-15-yl)benzamido)-5-(diethylamino)phenyl)-N-(3-(trifluoromethyl)benzyl)isonicotinamide]",IC50,human NaP2b (SLC34A2),1000 to 7940 nM
